Source: PMC8954747 (Viruses, 2022)
Ends that are not written are not given here.

Biological target: SCRIB PDZ2 H928A (Homo sapiens, UniProt Q14160, H928A)
Experiment: biochemical
Assay type: binding

SCRIB PDZ2 H928A, sequence (Q14160 860-950 H928A limits assumed): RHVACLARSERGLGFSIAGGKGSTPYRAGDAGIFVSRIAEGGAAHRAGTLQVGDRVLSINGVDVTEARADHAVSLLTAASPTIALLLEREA

How did the Kd turn out when KMARTIESEV [Vietnam (ESEV)] was run?
Its Kd is 3.6 ± 0.7 µM.
